Results taken from patent publication US20160010138A1, “RAPID DETERMINATION OF MICROBIAL DROWTH AND ANTIMICROBIAL SUSEPTABILITY” (priority 2013, published 2016).
Like-named read-outs stand apart in the source and are kept apart here.

What was measured:
[1] = system: Pseudomonas aeruginosa (PSAE); assay: MADM system resistance phenotype tests on respiratory specimens; assay type: cell-based; settings: for resistance phenotype result (S/R), MADM: ID PSAE; as to resistance phenotype result (S/R), MADM: key: S: susceptible; R: resistant
Experimental: (§1) These specimens were prepped for introduction into the MADM system. The system performed quantitative ID for Staphylococcus aureus (STAU), Pseudomonas aeruginosa (PSAE), and Acinetobacter spp. (ABCC). Concurrent quantitative culture was performed on specimens. The MADM system performed resistance phenotype tests on STAU-containing specimens for cefoxitin (FOX) MRSA phenotyping and clindamycin (CLI) resistance. The system tested ABCC- and PSAE-containing specimens for amikacin (AN) and imipenem (IMP) resistance.
(§2) Specimen preparation used a brief procedure to release bacteria, reduce imaging background, and suspend bacteria in a low ionic strength buffer. […] The remaining 62 specimens were tested using the MADM system.
(§3) 20 μL samples of prepared specimen were pipetted into independent flowcell channels and a low-voltage electrical field was applied for 5 minutes. The electrical field concentrated bacteria onto a functional surface coating that immobilized the bacteria on the lower flowcell surface. Each flowcell channel received only one type of test reagent solution that contained a selective agent if required (only for channels used to test AB, sulbactam 32 μg/mL).
(§4) The instrument acquired images at 10-minutes intervals for 180 minutes, using 10 fields of view in each flowcell channel through a 20× objective. Imaging used darkfield illumination. Identification variables included response to selective agents (AB with sulbactam), cell morphology, growth morphology, and growth rate.
(§5) Identification algorithms applied to each individual immobilized bacterial cell. The system measured the amount of change in mass over time to compute growth rates. Identification consisted of computing and combining probability scores for morphology, response to selective media, and growth rates to produce a receiver operating characteristic curve (ROC) to derive classification criteria.

[2] = system: Pseudomonas aeruginosa (PSAE); assay type: cell-based; settings: ID PSAE, culture result; also: key: S: susceptible; R: resistant
Text: A total of 281 de-identified remnant respiratory specimens were collected from hospital and commercial sources. The specimens included 25 endotracheal aspirates (ETA) of unknown age obtained from a specimen vendor. Also included were 230 mini-bronchoalveolar lavage (mini-BAL) and 26 ETA specimens obtained from Denver Health Medical Center (DHMC). DHMC specimens were 7-21 days old. AST results were available for all mini-BAL specimens but not for ETA. Accompanying reports also included semi-quantitative ID used to select 92 bacteria-positive specimens for analysis using the MADM system. Targets included Pseudomonas aeruginosa, Acinetobacter baumannii complex, and Staphylococcus aureus. Controls used standard culturing methods (Cx).
as §1

[3] = system: Acinetobacter spp. (ABCC); assay: MADM system resistance phenotype tests on respiratory specimens; assay type: cell-based, Acinetobacter sp. As to resistance phenotype result (S/R), MADM: key: S: susceptible; R: resistant.
Experimental: as §1, §2, §3, §4, §5

[4] = system: Steno; assay: MADM (BACcel) phenotype/sensitivity by growth analysis, surveillance mini-BAL; assay type: cell-based, S. maltophilia
Experimental: (§6) Adult MICU patients with identified surrogate were included within 72 hours of intubation and if anticipated to require MV for >48 h. Moribund state or pregnancy were exclusions. Surveillance mini-BAL (Combicath, Plastimed) was performed on Day 1, 3, 5, 7 and 10 of MV. Samples were split and processed for both a) routine respiratory quantitative microbiological culture and sensitivity assays (>48 h result availability) and b) rapid (<8 hour) flowcell/surface-capture assays using the MADM system. Viable microorganisms were identified using growth analysis enhanced by a focused VAP antibody panel (S. aureus, P. aeruginosa, A. baumannii). Untypable organisms were also reported. Sensitivity was assessed using growth analysis. Attending physicians were blinded to MADM system results.
(§7) BAL sample were prepared, removing debris and separating microorganisms from other sample material. Sample microorganisms were introduced into a multichannel fluidic cassette as described elsewhere herein. Bacteria were concentrated and retained on the lower surface of all flowcells using low-voltage electrical field (5 min) Antibody labeling of bacteria in flowcells was used to aid identification.
(§8) The automated digital microscopy system was used to perform darkfield imaging of 10 fields of view every 10 minutes for 180 minutes in each flowcell channel. Initial epifluorescence imaging was also performed for antibody detection. […] Identification consisted of probability scores based on microorganism morphology and growth rates. Antibody labeling identification data was also incorporated. Observed microorganisms were then classified as STAU, PSAE, or non-target. Antibiotic responses were used to aid identification when appropriate. Quantitation was performed by counting identified microorganisms and computing original specimen CFU/mL.

[5] = system: Enteric; assay: as above; assay type: cell-based; settings: Spec# 005-D7, BACcel ID Enteric, 1.26 × 10^5 CFU/ml
Experimental: as §6
BAL sample were prepared, removing debris and separating microorganisms from other sample material. Sample microorganisms were introduced into a multichannel fluidic cassette as described elsewhere herein. […]
The automated digital microscopy system was used to perform darkfield imaging of 10 fields of view every 10 minutes for 180 minutes in each flowcell channel. […] Quantitation was performed by counting identified microorganisms and computing original specimen CFU/mL.

[6] = system: Staphylococcus aureus (STAU); assay: MADM system resistance phenotype tests on respiratory specimens; assay type: cell-based; settings: ID STAU, MRSA by FOX
Experimental: (§9) (ABCC). Concurrent quantitative culture was performed on specimens.
Specimen preparation used a brief procedure to release bacteria, reduce imaging background, and suspend bacteria in a low ionic strength buffer. […] We rejected 10 samples with heavy interfering background when dilution to OD600=0.3 yielded organism counts inadequate for analysis. We rejected 7 samples for other technical deficiencies. The remaining 62 specimens were tested using the MADM system.
as §3, §4, §5

[7] = system: Staphylococcus aureus (STAU); assay: Culture (Cx) / hospital AST comparator on respiratory specimens; assay type: cell-based; settings: for resistance phenotype result (S/R), Cx: ID STAU, culture result, MRSA by oxacillin; as to resistance phenotype result (S/R), Cx: key: S: susceptible; R: resistant
Experimental: DHMC specimens were 7-21 days old. […] Controls used standard culturing methods (Cx).
as §9

[8] = system: STAU; assay: MADM (BACcel) phenotype/sensitivity by growth analysis, surveillance mini-BAL; assay type: cell-based, S. aureus
Experimental: as §6, §7, §8

[9] = system: E. coli; assay: Membrane potential indicator staining; assay type: cell-based; settings: 10 µg/ml DiBAC4(3), 15 min, room temp
Text: (§10) Physiologic indicators of active bacteria include indicators of growth, responsiveness to external stimulus, transcription, translation, energy dependent activity, enzyme activity, and an intact permeability barrier. The indicators tested experimentally were grouped according to the following functional categories of physiologic states to which they are responsive, which included indicators of respiratory and metabolic activity, and membrane integrity.
Active bacterial cells maintain a proton gradient across their cell membranes, creating a membrane potential that may be measured using fluorescent dyes. However, the dyes used in this study to evaluate membrane potential are toxic to bacteria and can only be used as an endpoint assay.
DiBAC4(3) (Molecular Probes) is an anionic dye that enters depolarized cells (i.e., cells lacking a membrane potential) and fluoresces in the […] channel when it binds to intracellular proteins or membranes. Using this indicator, 18.5% of an overnight refrigerator stock (control) and 95% of heat-killed E. coli stained with 10 µg/ml DiBAC4(3) after a 15 min incubation period at room temp.

[10] = system: Klebsiella pneumoniae (KP) clinical isolates; assay: KPC assay: growth in ertapenem with and without boronic acid inhibitor (MADM); assay type: cell-based
Experimental: The bottom surface was coated with poly-L-lysine to immobilize live bacteria.
Clinical isolates of Pseudomonas aeruginosa (PA), Acinetobacter baumannii (AB), and Klebsiella pneumoniae (KP) were tested. […] Test results are expressed as nonsusceptible (NS) or susceptible (S).
Isolates were grown on blood agar, suspended colonies in tryptic soy broth for 2 hours, then centrifuged and resuspended log-phase bacteria in low ionic strength electrokinetic buffer.
MADM system analysis was performed using a 32-channel disposable fluidic cassette (FIG. 4A) to measure growth of immobilized bacteria. […] Klebsiella pneumoniae (KP) clinical isolates were tested for ertapenem (ETP) nonsusceptibility at 16 μg/mL with and without the inhibitors aminophenyl boronic acid (APB) at 300 μg/mL or benzo(b)thiophene-2-boronic acid (BTB) at 50 μg/mL to identify putative KPC-positive strains.
10 μL aliquots of 5E+7 CFU/mL were pipetted into separate flowcells for each isolate and test condition. Microorganisms were electrokinetically concentrated onto the flowcell detection surface with an electrical field to the positively charged lower surface to immobilize cells and yield 10-100 bacteria per field of view (FIG. 4B). […] The system measured growth at 10-minute intervals. […] Growth was evaluated, interpreting results for PA, AB, and KP-ETP as NS if growth had not arrested within 3 hours. […]

[11] = system: heat-killed cells and isopropyl alcohol killed cells; assay: Esterase activity indicator fluorescence in killed cells (MADM system); assay type: cell-based
Text: as §10
Carboxyfluorescein diacetate/carboxyfluorescein diacetate succinimidyl ester (CFDA/CFDA-SE; Molecular Probes) compounds are converted into amine-reactive fluorescent molecules when cleaved by esterases present within active cells. When CFDA-SE is taken up by live cells, the fluorescent molecule produced by esterase cleavage and amine reaction is retained inside the cell. […] The product formed by uptake and processing of CFDA, on the other hand, should be more “leaky” over time and may exit a dead cell. […] Shorter delay times have not yet been investigated but may be compatible with avoiding false positive results while providing a shorter assay period.

[12] = Spec# 006-D1, BACcel ID Steno, 7.68 × 10^5 CFU/ml
[13] = Spec# 006-D3, BACcel ID Steno, 1.60 × 10^4 CFU/ml
[14] = dyes added immediately after heat or isopropyl alcohol treatment

NCC[C@H](O)C(=O)N[C@@H]1C[C@H](N)[C@@H](O[C@H]2O[C@H](CN)[C@@H](O)[C@H](O)[C@H]2O)[C@H](O)[C@H]1O[C@H]1O[C@H](CO)[C@@H](O)[C@H](N)[C@H]1O [AN, amikacin]
susceptibility of all PSAE ([1]; all PSAE-containing respiratory specimens): susceptible | resistance phenotype result (S/R), MADM ([1]; specimen DH 430, Mini-BAL): S | resistance phenotype result (S/R), MADM ([1]; specimen DH 554, BAL): S | resistance phenotype result (S/R), MADM ([1]; specimen DH 641, Mini-BAL): S | resistance phenotype result (S/R), Cx ([2]; specimen DH 430, Mini-BAL): S | resistance phenotype result (S/R), Cx ([2]; specimen DH 554, BAL): S | resistance phenotype result (S/R), Cx ([2]; specimen DH 641, Mini-BAL): S | resistance phenotype result (S/R), MADM ([3]; ABCC-positive specimen (specimen name not given)): S | susceptibility of all ABCC ([3]; all ABCC-containing respiratory specimens): susceptible | Phenotype, sensitivity (growth in antibiotic) [4, 12]: growth, TZP- | Phenotype, sensitivity (growth in antibiotic) [4, 13]: growth, TZP-

CC(C)(O/N=C(\C(=O)N[C@@H]1C(=O)N2C(C(=O)[O-])=C(C[n+]3ccccc3)CS[C@H]12)c1csc(N)n1)C(=O)O [CAZ, ceftazidime]
Phenotype, sensitivity (growth in antibiotic) [5]: all growth | Phenotype, sensitivity (growth in antibiotic) [4, 12]: growth, TZP- | Phenotype, sensitivity (growth in antibiotic) [4, 13]: growth, TZP-

CCC[C@@H]1C[C@@H](C(=O)N[C@@H]([C@H]2O[C@H](SC)[C@H](O)[C@@H](O)[C@H]2O)[C@H](C)Cl)N(C)C1 [CLI, clindamycin]
resistance phenotype result (S/R), MADM ([6]; specimen DH 425, Mini-BAL): S | resistance phenotype result (S/R), MADM ([6]; specimen DH 427, Mini-BAL): S | resistance phenotype result (S/R), MADM ([6]; specimen DH 439, Mini-BAL): S | resistance phenotype result (S/R), MADM ([6]; specimen DH 440, BAL): S | resistance phenotype result (S/R), MADM ([6]; specimen DH 457, BAL): S | resistance phenotype result (S/R), MADM ([6]; specimen DH 485, BAL): S | resistance phenotype result (S/R), MADM ([6]; specimen DH 509, BAL): S | resistance phenotype result (S/R), MADM ([6]; specimen DH 514, Mini-BAL): S | resistance phenotype result (S/R), MADM ([6]; specimen DH 543, BAL): S | resistance phenotype result (S/R), MADM ([6]; specimen DH 550, BAL): S | resistance phenotype result (S/R), MADM ([6]; specimen DH 556, Mini-BAL): S | resistance phenotype result (S/R), MADM ([6]; specimen T12, ETA): S | resistance phenotype result (S/R), Cx ([7]; specimen DH 425, Mini-BAL): S | resistance phenotype result (S/R), Cx ([7]; specimen DH 427, Mini-BAL): S | resistance phenotype result (S/R), Cx ([7]; specimen DH 439, Mini-BAL): S | resistance phenotype result (S/R), Cx ([7]; specimen DH 440, BAL): S | resistance phenotype result (S/R), Cx ([7]; specimen DH 457, BAL): S | resistance phenotype result (S/R), Cx ([7]; specimen DH 485, BAL): S | resistance phenotype result (S/R), Cx ([7]; specimen DH 509, BAL): S | resistance phenotype result (S/R), Cx ([7]; specimen DH 514, Mini-BAL): S | resistance phenotype result (S/R), Cx ([7]; specimen DH 543, BAL): S | resistance phenotype result (S/R), Cx ([7]; specimen DH 550, BAL): S | resistance phenotype result (S/R), Cx ([7]; specimen DH 556, Mini-BAL): S | resistance phenotype result (S/R), Cx ([7]; specimen T12, ETA): S | Phenotype, sensitivity ([8]; Spec# 008-D7, BACcel ID STAU, 1.11 × 10^6 CFU/ml): (MRSA) CLI-R | Phenotype, sensitivity ([8]; Spec# 033-D7, BACcel ID STAU, 6.64 × 10^4 CFU/ml): MRSA, CLI-R

CCCCN1C(=O)C(=CC=Cc2c(O)n(CCCC)c(=O)n(CCCC)c2=O)C(=O)N(CCCC)C1=O [DiBAC4(3)]
cells stained ([9]; heat-killed E. coli): 95% | cells stained ([9]; overnight refrigerator stock (control) E. coli): 18.5%

C[C@@H](O)[C@H]1C(=O)N2C(C(=O)O)=C(S[C@@H]3CN[C@H](C(=O)Nc4cccc(C(=O)O)c4)C3)[C@H](C)[C@H]12 [ETP, ertapenem]
growth of susceptible (KPC-negative) strains ([10]; ETP at 16 μg/mL (FIG. 21)): fail to grow | growth morphology during drug exposure ([10]; KPC clinical isolate, ETP 16 μg/mL, 20 and 90 min of exposure (FIG. 20)): abnormal growth morphology

Cc1onc(-c2ccccc2)c1C(=O)N[C@@H]1C(=O)N2[C@@H]1SC(C)(C)[C@@H]2C(=O)O [OXA, oxacillin]
resistance phenotype result (S/R), Cx ([7]; specimen DH 425, Mini-BAL): S | resistance phenotype result (S/R), Cx ([7]; specimen DH 427, Mini-BAL): S | resistance phenotype result (S/R), Cx ([7]; specimen DH 439, Mini-BAL): R | resistance phenotype result (S/R), Cx ([7]; specimen DH 440, BAL): S | resistance phenotype result (S/R), Cx ([7]; specimen DH 457, BAL): S | resistance phenotype result (S/R), Cx ([7]; specimen DH 485, BAL): S | resistance phenotype result (S/R), Cx ([7]; specimen DH 509, BAL): S | resistance phenotype result (S/R), Cx ([7]; specimen DH 514, Mini-BAL): S | resistance phenotype result (S/R), Cx ([7]; specimen DH 543, BAL): S | resistance phenotype result (S/R), Cx ([7]; specimen DH 550, BAL): S | resistance phenotype result (S/R), Cx ([7]; specimen DH 556, Mini-BAL): S | resistance phenotype result (S/R), Cx ([7]; specimen T12, ETA): R | MRSA/MSSA call by oxacillin MIC (hospital AST) ([7]; the one discordant STAU sample): MSSA

Carboxyfluorescein diacetate [CFDA]
fluorescence of killed cells [11, 14]: demonstrated fluorescence

carboxyfluorescein diacetate succinimidyl ester [CFDA-SE]
fluorescence of killed cells [11, 14]: demonstrated fluorescence | fluorescence of killed cells ([11]; two hour post-heat-kill delay): no fluorescence was observed
